The subject of assay [1] is Primary human bronchial epithelial cells from a ΔF508 homozygous CF donor (CF-HBE cells). The assay can be described thus: TECC24 recording of CFTR-mediated transepithelial chloride transport, AUC fold over benchmark VX-809 @10 μM. The note with it: 48 hours incubation, AUC of forskolin-stimulated IEQ. Format: cell-based. Here is the method:
The effects of a test agent on CFTR-mediated transepithelial chloride transport is measured using TECC24 recording analysis. Test agents are solubilized in DMSO. Solubilized test agents are mixed with incubation medium containing DMEM/F12, Ultroser G (0.5%; Crescent Chemical, catalog #67042), Hyclone Fetal Clone II (2%; GE Healthcare, catalog #SH30066.02), bovine brain extract (0.25%; Lonza, catalog #CC-4098), insulin ([…]), IL-13 (10 ng/mL), hydrocortisone (20 nM), transferrin ([…]), triiodothyronine (500 nM), ethanolamine (250 nM), epinephrine (1.5 μM), phosphoethanolamine (250 nM), and retinoic acid (10 nM). Primary human bronchial epithelial cells from a ΔF508 homozygous CF donor (CF-HBE cells; from University of North Carolina Cystic Fibrosis Tissue Procurement Center), grown on Transwell HTS 24-well cell culture inserts (Costar, catalog #3378), are exposed to test agents or controls dissolved in incubation medium. The CF-HBE cells are cultured at 36.5° C. for 48 hours before TECC24 recordings are performed in the presence or absence of test agent, a positive control or vehicle (DMSO).
Following incubation, the transwell cell culture inserts containing the test agent or control-treated CF-HBE cells are loaded onto a TECC24 apparatus (TECC v7 or MTECC v2; EP Design) to record the transepithelial voltage (VT) and resistance (TEER) using 4 AgCl electrodes per well configured in current-clamp mode. The apical and basolateral bath solutions both contain (in mM) 140 NaCl, 5 KCl, 2 CaCl2), 1 MgCl2, 10 Hepes, and 10 glucose (adjusted to pH 7.4 with NaOH). To inhibit basal Na+ absorption, the ENaC inhibitor benzamil (10 μM) is added to the bath. Then, the adenylate cyclase activator, forskolin (10 μM), is added to the bath to activate CFTR. The forskolin-stimulated Cl− transport is halted by addition of CFTR inhibitor-172 (20 μM) to the bath at the end of the experiment to confirm specificity. VT and TEER recordings are digitally acquired at routine intervals using TECC or MTECC software (EP Design). VT and TEER are transformed into equivalent transepithelial Cl− current (IEQ), and the Area Under the Curve (AUC) of the IEQ time course between forskolin and CFTR inhibitor-172 addition is generated using Excel (Microsoft). Efficacy is expressed as the ratio of the test agent AUC divided by vehicle AUC. EC50s based on AUC are generated using the non-linear regression log(agonist) vs. response function in Prism software (Graphpad) with HillSlope fixed=1.
If a test agent increases the AUC of the forskolin-stimulated IEQ relative to VX-809 in CF-HBE cells, and this increase is inhibited by CFTR inhibitor-172, then the test agent is considered a CFTR corrector. TECC assay efficacy is expressed as the ratio of the test agent AUC divided by VX-809 AUC. As set forth in Table 2 below, a TECC value less than 3 is marked “A”; a value between 3 and 6 is marked “B”; a value between 6 and 20 is marked “C”.

Assay [2] addresses T1, Purified recombinant NBD1 (Homo sapiens, UniProt P13569).
T1 construct: Purified recombinant NBD1 was produced using previously described methods; made in house
The assay is described as follows: Aggregation analysis using differential static light scattering (DSLS): thermal stability of NBD1. Format: binding. The note with it: NBD1 0.2 mg/ml; Tagg of compound well minus average Tagg of DMSO control wells. The protocol:
Purified recombinant NBD1 was produced using previously described methods (A. Schmidt, J. L. Mendoza, P. J. Thomas (2011) Biochemical and Biophysical Approaches to Probe CFTR Structure (365-376) M. D. Amaral, K. Kunzelmann (eds.), Cystic Fibrosis, Methods in Molecular Biology 741, Springer Science+Business Media). The effect of test compounds on thermal stability of NBD1 was evaluated by differential static light scattering (DSLS) using the Harbinger Stargazer-384 instrument (Epiphyte Three, Toronto, Canada). Test compounds were dissolved and diluted to desired concentrations in 100% DMSO. The compounds or DMSO controls (100 nL) were stamped into wells of a […] low volume optical plate (Corning Inc., Corning, NY) using the Echo 555 acoustic liquid handler (Labcyte Inc., San Jose, CA).
NBD1 protein was diluted to 0.2 mg/ml in S200 buffer (50 mM Tris-HCl, 150 mM NaCl, 5 mM MgCl2, 2 mM ATP, 2 mM DTT, pH7.6) containing 1% glycerol. 10 uL of protein solution was aliquoted into the 384-well plate harboring the test compounds and 10 uL mineral oil was overlaid onto the protein solution, using the epMotion robotic liquid handler (Eppendorf North America, Hauppauge, NY). After placing into the Stargazer instrument, the plate was heated at 1° C. per minute to 70° C. Images were captured from 25° C. to 70° C. every 0.5° C. At the end of the experiment run, instrument software integrated image files and analyzed data automatically. A […] regression curve was generated for each well, representing the increase in light scattering over time. A temperature of aggregation (Tagg) was calculated based on the inflection point of the curve. To better compare data across experiments the average Tagg for DMSO control wells was calculated and subtracted from values for wells containing compounds to obtain a “ΔTagg” value. These ΔTagg values reflect stabilizing efficacy of the compounds. As set forth in Table 2 below, an ΔTagg value less than or equal to 5° C. is marked “A”; a value above 5° C. and less than or equal to 10° C. is marked “B”; a value greater than 10° C. and less than or equal to 25° C. is marked “C”.

T1 sequence (P13569 423-646 limits assumed): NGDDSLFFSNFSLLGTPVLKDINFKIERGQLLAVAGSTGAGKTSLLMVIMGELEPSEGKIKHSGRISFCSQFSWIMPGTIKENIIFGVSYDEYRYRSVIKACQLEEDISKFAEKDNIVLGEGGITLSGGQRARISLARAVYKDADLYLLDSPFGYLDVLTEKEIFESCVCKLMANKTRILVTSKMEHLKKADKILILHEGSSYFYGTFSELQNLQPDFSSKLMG

Regarding `Cn1nc2nc1-c1cc(ccc1F)Oc1c(F)cc3[nH]ccc3c1COC(=O)NC(C)(C)CCCC2(C)c1cccc(CCC(=O)O)c1` (single isomer, unassigned) [Compound 99A, 3-[3-(22,28-difluoro-3,6,10,10-tetramethyl-12-oxo-13,24-dioxa-3,4,11,19,30-pentazapentacyclo-[23.3.1.12,5.015,23.016,20]-triaconta-1(29),2(30),4,15,17,20,22,25,27-nonaen-6-yl)phenyl]propanoic acid], in assay [1], the “TECC (test agent AUC divided by VX-809 AUC)” value is “B (a value between 3 and 6 is marked “B”)”. In addition, in assay [2], the “DSLS (ΔTagg)” value was “C (a value greater than 10 °C and less than or equal to 25 °C is marked “C”)”.
As to `CC1(C)CCCC(C)(c2cccc(CCC(=O)O)c2)c2cnc([nH]2)-c2cc(ccc2F)Oc2c(F)cc3[nH]ccc3c2CNC(=O)OC1` (stereo not shown) [Compound 89, 3-[3-(23,29-Difluoro-6,10,10-trimethyl-13-oxo-12,25-dioxa-3,14,20,31-tetrazapentacyclo[24.3.1.12,5.016,24.017,21]hentriaconta-1(30),2,4,16,18,21,23,26,28-nonaen-6-yl)phenyl]propanoic acid], the “TECC (test agent AUC divided by VX-809 AUC)” value in assay [1] is “B (a value between 3 and 6 is marked “B”)”. Further, in assay [2], the “DSLS (ΔTagg)” value is “C (a value greater than 10 °C and less than or equal to 25 °C is marked “C”)”.
Take `CN1CC(C)(C)CCCC(C)(c2ccc(CCC(=O)O)cc2)c2cnc([nH]2)-c2cc(ccc2F)Oc2c(F)cc3[nH]ccc3c2CCC1=O` (single isomer, unassigned) [Compound 47B, 3-[4-(23,29-Difluoro-6,10,10,12-tetramethyl-13-oxo-25-oxa-3,12,20,31-tetrazapentacyclo-[24.3.1.12,5.016,24.017,21]hentriaconta-1(30),2,4,16,18,21,23,26,28-nonaen-6-yl)phenyl]propanoic acid]: the “TECC (test agent AUC divided by VX-809 AUC)” value in assay [1] is recorded as “A (a TECC value less than 3 is marked “A”)”. For the same compound, in assay [2], the “DSLS (ΔTagg)” value is “C (a value greater than 10 °C and less than or equal to 25 °C is marked “C”)”.
As for `CN1CC(C)(C)CCCC(C)(c2cccc(CCC(=O)O)c2)c2cnc([nH]2)-c2cc(ccc2F)Oc2c(F)cc3[nH]cnc3c2CCC1=O` (single isomer, unassigned) [Compound 72A, 3-[3-(23,29-difluoro-6,10,10,12-tetramethyl-13-oxo-25-oxa-3,12,18,20,31-pentazapentacyclo-[24.3.1.12,5.016,24.017,21]hentriaconta-1(30),2,4,16,18,21,23,26,28-nonaen-6-yl)phenyl]propanoic acid], the “TECC (test agent AUC divided by VX-809 AUC)” value in assay [1] is given as “A (a TECC value less than 3 is marked “A”)”. Also, the “DSLS (ΔTagg)” value in assay [2] is “A (an ΔTagg value less than or equal to 5 °C is marked “A”)”.
Take `Cn1nc2nc1-c1cc(ccc1F)Oc1c(F)cc3[nH]ccc3c1CCC(=O)NS(=O)(=O)CCCCC2(C)c1ccccc1` (stereo not shown) [Compound 115]: the “TECC (test agent AUC divided by VX-809 AUC)” value in assay [1] is listed as “A (a TECC value less than 3 is marked “A”)”. For the same compound, the “DSLS (ΔTagg)” value in assay [2] was “C (a value greater than 10 °C and less than or equal to 25 °C is marked “C”)”.
For the compound `Cn1nc2nc1-c1cc(ccc1F)Oc1c(F)cc3[nH]ccc3c1COC(=O)NC(C)(C)CCCCC2(C)c1ccccc1` (stereo not shown) [Compound 102, 23,29-difluoro-3,6,11,11-tetramethyl-6-phenyl-14,25-dioxa-3,4,12,20,31-pentazapentacyclo[24.3.1.12,5.016,24.017,21]hentriaconta-1(30),2(31),4,16,18,21,23,26,28-nonaen-13-one], in assay [1], the “TECC (test agent AUC divided by VX-809 AUC)” value was “B (a value between 3 and 6 is marked “B”)”. Besides, in assay [2], the “DSLS (ΔTagg)” value was “B (a value above 5 °C and less than or equal to 10 °C is marked “B”)”.
Turning to `Cn1nc2nc1-c1cc(ccc1F)Oc1c(F)cc3[nH]ccc3c1CCNC(=O)OCC(C)(C)CC[C@@]2(C)c1cccc(CCC(=O)O)c1` (single isomer, unassigned) [Compound 98B], the “TECC (test agent AUC divided by VX-809 AUC)” value in assay [1] was “B (a value between 3 and 6 is marked “B”)”. The “DSLS (ΔTagg)” value in assay [2] is “A (an ΔTagg value less than or equal to 5 °C is marked “A”)”.
Consider `CN1CC(C)(C)CCCC(C)(c2cccc(CCC(=O)NOCCO)c2)c2cnc([nH]2)-c2cc(ccc2F)Oc2c(F)cc3[nH]ccc3c2CCC1=O` (single isomer, unassigned) [Compound 58, 3-[3-(23,29-difluoro-6,10,10,12-tetramethyl-13-oxo-25-oxa-3,12,20,31-tetrazapentacyclo[24.3.1.12,5.016,24.017,21]hentriaconta-1(30),2,4,16,18,21,23,26,28-nonaen-6-yl)phenyl]-N-(2-hydroxyethoxy)propanamide], for which the “TECC (test agent AUC divided by VX-809 AUC)” value in assay [1] was “A (a TECC value less than 3 is marked “A”)”. Besides, in assay [2], the “DSLS (ΔTagg)” value is “A (an ΔTagg value less than or equal to 5 °C is marked “A”)”.
As for `CN1CC(C)(C)CCCC(C)(c2cccc(CCC(=O)NO)c2)c2cnc([nH]2)-c2cc(ccc2F)Oc2c(F)cc3[nH]ccc3c2CCC1=O` (single isomer, unassigned) [Compound 55, 3-[3-(23,29-difluoro-6,10,10,12-tetramethyl-13-oxo-25-oxa-3,12,20,31-tetrazapentacyclo-[24.3.1.12,5.016,24.017,21]hentriaconta-1(30),2,4,16,18,21,23,26,28-nonaen-6-yl)phenyl]propanehydroxamic acid], the “TECC (test agent AUC divided by VX-809 AUC)” value in assay [1] is “A (a TECC value less than 3 is marked “A”)”. In addition, the “DSLS (ΔTagg)” value in assay [2] was “B (a value above 5 °C and less than or equal to 10 °C is marked “B”)”.
In the case of `[2H]C([2H])([2H])C1(c2cccc(CCC(=O)O)c2)CCCC(C)(C)CN(C)C(=O)CCc2c(c(F)cc3[nH]ccc23)Oc2ccc(F)c(c2)-c2ncc1[nH]2` (single isomer, unassigned) [Compound 66B], the “TECC (test agent AUC divided by VX-809 AUC)” value in assay [1] is “A (a TECC value less than 3 is marked “A”)”. In assay [2], the “DSLS (ΔTagg)” value is “C (a value greater than 10 °C and less than or equal to 25 °C is marked “C”)”.
As to `CN1CC(C)(C)CCCC(C)(c2cccc(CCC(=O)NO)c2)c2cnc([nH]2)-c2cc(ccc2F)Oc2c(F)cc3[nH]ccc3c2CCC1=O` (single isomer, unassigned) [Compound 54, 3-[3-(23,29-difluoro-6,10,10,12-tetramethyl-13-oxo-25-oxa-3,12,20,31-tetrazapentacyclo-[24.3.1.12,5.016,24.017,21]hentriaconta-1(30),2,4,16,18,21,23,26,28-nonaen-6-yl)phenyl]propanehydroxamic acid], the “TECC (test agent AUC divided by VX-809 AUC)” value in assay [1] was “A (a TECC value less than 3 is marked “A”)”. In addition, the “DSLS (ΔTagg)” value in assay [2] is “A (an ΔTagg value less than or equal to 5 °C is marked “A”)”.

(Values after US20250197420A1, “MACROCYCLIC COMPOUNDS, COMPOSITIONS, AND METHODS OF USING THEREOF” (Sionna Therapeutics Inc., priority 2022, published 2025).)
